In ChEMBL document CHEMBL1221222, “Analysis of the eukaryotic prenylome by isoprenoid affinity tagging” (Nat Chem Biol, 2009):
The source made the active and inactive calls. The rule behind the calls is not given here.

What was measured:
[1] = tested on: Geranylgeranyl transferase type-1 subunit beta (Homo sapiens), P53609 [F52Y,F53Y,Y126T]; experiment: Binding affinity to GGTase-1 F52Y/F53Y/Y126T mutant assessed as prenylation of dansyl-labeled GCVLS by fluorescence based assay
[2] = tested on: Protein farnesyltransferase subunit beta (Homo sapiens), P49356 [W102T,Y154T,Y205T]; experiment: Binding affinity at FTase W102T/Y154T/Y205T mutant assessed as prenylation of dansyl-labeled GCVLS by fluorescence based assay
Sequence of Protein farnesyltransferase subunit beta (Homo sapiens), P49356 [W102T,Y154T,Y205T] (P49356 whole entry W102T/Y154T/Y205T): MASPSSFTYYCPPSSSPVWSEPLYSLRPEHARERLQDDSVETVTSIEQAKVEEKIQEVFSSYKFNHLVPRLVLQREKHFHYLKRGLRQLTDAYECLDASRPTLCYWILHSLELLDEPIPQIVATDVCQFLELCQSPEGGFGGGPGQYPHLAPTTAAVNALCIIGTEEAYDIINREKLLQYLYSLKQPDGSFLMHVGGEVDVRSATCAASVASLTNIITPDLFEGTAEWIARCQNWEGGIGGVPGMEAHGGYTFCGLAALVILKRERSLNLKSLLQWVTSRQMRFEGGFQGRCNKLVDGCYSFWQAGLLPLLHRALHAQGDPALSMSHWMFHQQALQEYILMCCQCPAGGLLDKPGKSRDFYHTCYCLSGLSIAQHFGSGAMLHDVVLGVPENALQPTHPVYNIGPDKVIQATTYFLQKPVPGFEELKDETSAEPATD

[3] = tested on: Geranylgeranyl transferase type-1 subunit beta (Homo sapiens), P53609 [F52Y,F53Y,Y126T]; experiment: Binding affinity to GGTase-1 F52Y/F53Y/Y126T mutant assessed as prenylation of dansyl-labeled GCVLL by fluorescence based assay
[4] = tested on: Protein farnesyltransferase subunit beta (Homo sapiens), P49356 [W102T,Y154T,Y205T]; experiment: Binding affinity to FTase W102T/Y154T/Y205T mutant assessed as prenylation of dansyl-labeled GCVLL by fluorescence based assay
COS-7 [5] = experiment: Inhibition of FTase in african green monkey COS7 cells assessed as protein prenylation at 100 uM by Western blot analysis; assay type: cell-based
COS-7 [6] = experiment: Inhibition of RabGGTase in african green monkey COS7 cells assessed as Rab prenylation up to 50 uM by Western blot analysis; assay type: cell-based
COS-7 [7] = experiment: Inhibition of RabGGTase in african green monkey COS7 cells assessed as unprenylated Rab05B level by MudPIT analysis; assay type: cell-based
COS-7 [8] = experiment: Inhibition of RabGGTase in african green monkey COS7 cells assessed as unprenylated Rab30 level by MudPIT analysis; assay type: cell-based
COS-7 [9] = experiment: Inhibition of RabGGTase in african green monkey COS7 cells assessed as unprenylated Rab11B level by MudPIT analysis; assay type: cell-based
COS-7 [10] = experiment: Inhibition of RabGGTase in african green monkey COS7 cells assessed as unprenylated Rab01A level by MudPIT analysis; assay type: cell-based
COS-7 [11] = experiment: Inhibition of RabGGTase in african green monkey COS7 cells assessed as unprenylated Rab39A level by MudPIT analysis; assay type: cell-based
COS-7 [12] = experiment: Inhibition of RabGGTase in african green monkey COS7 cells assessed as unprenylated Rab03A level by MudPIT analysis; assay type: cell-based
COS-7 [13] = experiment: Inhibition of isoprenoid biosynthesis in african green monkey COS7 assessed as unprenylated Rab protein level by Western blot analysis; assay type: functional, cell-based; conditions: Chlorocebus aethiops
COS-7 [14] = experiment: Inhibition of RabGGTase in african green monkey COS7 cells assessed as unprenylated Rab03D level by MudPIT analysis; assay type: cell-based
COS-7 [15] = experiment: Inhibition of RabGGTase in african green monkey COS7 cells assessed as unprenylated Rab03C level by MudPIT analysis; assay type: cell-based
COS-7 [16] = experiment: Inhibition of RabGGTase in african green monkey COS7 cells assessed as unprenylated Rab33B level by MudPIT analysis; assay type: cell-based
COS-7 [17] = experiment: Inhibition of RabGGTase in african green monkey COS7 cells assessed as unprenylated Rab37 level by MudPIT analysis; assay type: cell-based
COS-7 [18] = experiment: Inhibition of RabGGTase in african green monkey COS7 cells assessed as unprenylated Rab11A level by MudPIT analysis; assay type: cell-based
COS-7 [19] = experiment: Inhibition of RabGGTase in african green monkey COS7 cells assessed as unprenylated Rab13 level by MudPIT analysis; assay type: cell-based
COS-7 [20] = experiment: Inhibition of RabGGTase in african green monkey COS7 cells assessed as unprenylated Rab05C level by MudPIT analysis; assay type: cell-based
COS-7 [21] = experiment: Inhibition of RabGGTase in african green monkey COS7 cells assessed as unprenylated Rab41 level by MudPIT analysis; assay type: cell-based
COS-7 [22] = experiment: Inhibition of RabGGTase in african green monkey COS7 cells assessed as unprenylated Rab14 level by MudPIT analysis; assay type: cell-based
COS-7 [23] = experiment: Inhibition of RabGGTase in african green monkey COS7 cells assessed as unprenylated Rab04A level by MudPIT analysis; assay type: cell-based
COS-7 [24] = experiment: Inhibition of RabGGTase in african green monkey COS7 cells assessed as unprenylated Rab05A level by MudPIT analysis; assay type: cell-based
COS-7 [25] = experiment: Inhibition of RabGGTase in african green monkey COS7 cells assessed as unprenylated Rab31 level by MudPIT analysis; assay type: cell-based
COS-7 [26] = experiment: Inhibition of RabGGTase in african green monkey COS7 cells assessed as unprenylated Rab27B level by MudPIT analysis; assay type: cell-based
COS-7 [27] = experiment: Inhibition of RabGGTase in african green monkey COS7 cells assessed as unprenylated Rab10 level by MudPIT analysis; assay type: cell-based
COS-7 [28] = experiment: Inhibition of RabGGTase in african green monkey COS7 cells assessed as unprenylated Rab08A level by MudPIT analysis; assay type: cell-based
COS-7 [29] = experiment: Inhibition of RabGGTase in african green monkey COS7 cells assessed as unprenylated Rab07a level by MudPIT analysis; assay type: cell-based
COS-7 [30] = experiment: Inhibition of RabGGTase in african green monkey COS7 cells assessed as unprenylated Rab02A level by MudPIT analysis; assay type: cell-based
COS-7 [31] = experiment: Inhibition of RabGGTase in african green monkey COS7 cells assessed as unprenylated Rab35 level by MudPIT analysis; assay type: cell-based
COS-7 [32] = experiment: Inhibition of RabGGTase in african green monkey COS7 cells assessed as unprenylated Rab15 level by MudPIT analysis; assay type: cell-based
COS-7 [33] = experiment: Inhibition of RabGGTase in african green monkey COS7 cells assessed as unprenylated Rab22A level by MudPIT analysis; assay type: cell-based
COS-7 [34] = experiment: Inhibition of RabGGTase in african green monkey COS7 cells assessed as unprenylated Rab06C level by MudPIT analysis; assay type: cell-based
COS-7 [35] = experiment: Inhibition of RabGGTase in african green monkey COS7 cells assessed as unprenylated Rab06A level by MudPIT analysis; assay type: cell-based
COS-7 [36] = experiment: Inhibition of RabGGTase in african green monkey COS7 cells assessed as unprenylated Rab06B level by MudPIT analysis; assay type: cell-based
COS-7 [37] = experiment: Inhibition of RabGGTase in african green monkey COS7 cells assessed as unprenylated Rab18 level by MudPIT analysis; assay type: cell-based
COS-7 [38] = experiment: Inhibition of RabGGTase in african green monkey COS7 cells assessed as unprenylated Rab34 level by MudPIT analysis; assay type: cell-based
COS-7 [39] = experiment: Inhibition of RabGGTase in african green monkey COS7 cells assessed as unprenylated Rab01B level by MudPIT analysis; assay type: cell-based
COS-7 [40] = experiment: Inhibition of RabGGTase in african green monkey COS7 cells assessed as unprenylated Rab43 level by MudPIT analysis; assay type: cell-based
COS-7 [41] = experiment: Inhibition of RabGGTase in african green monkey COS7 cells assessed as unprenylated Rab27A level by MudPIT analysis; assay type: cell-based
COS-7 [42] = experiment: Inhibition of RabGGTase in african green monkey COS7 cells assessed as unprenylated Rab08B level by MudPIT analysis; assay type: cell-based
COS-7 [43] = experiment: Inhibition of RabGGTase in african green monkey COS7 cells assessed as unprenylated Rab09B level by MudPIT analysis; assay type: cell-based
COS-7 [44] = experiment: Inhibition of RabGGTase in african green monkey COS7 cells assessed as unprenylated Rab21 level by MudPIT analysis; assay type: cell-based
COS-7 [45] = experiment: Inhibition of RabGGTase in african green monkey COS7 cells assessed as unprenylated Rab09A level by MudPIT analysis; assay type: cell-based
COS-7 [46] = experiment: Inhibition of RabGGTase in african green monkey COS7 cells assessed as unprenylated Rab02B level by MudPIT analysis; assay type: cell-based
COS-7 [47] = experiment: Inhibition of RabGGTase in african green monkey COS7 cells assessed as unprenylated Rab03B level by MudPIT analysis; assay type: cell-based
COS-7 [48] = experiment: Inhibition of RabGGTase in african green monkey COS7 cells assessed as unprenylated Rab04B level by MudPIT analysis; assay type: cell-based
COS-7 [49] = experiment: Inhibition of RabGGTase in african green monkey COS7 cells assessed as unprenylated Rab39B level by MudPIT analysis; assay type: cell-based
COS-7 [50] = experiment: Inhibition of GGTase-1 in african green monkey COS7 cells assessed as protein prenylation at >5 uM by Western blot analysis; assay type: cell-based
COS-7 [51] = experiment: Inhibition of FTase in african green monkey COS7 cells assessed as protein prenylation at 15 uM by Western blot analysis; assay type: cell-based
COS-7 [52] = experiment: Inhibition of RabGGTase in african green monkey COS7 cells assessed as Rab prenylation by Western blot analysis; assay type: cell-based

Sequence of Geranylgeranyl transferase type-1 subunit beta (Homo sapiens), P53609 [F52Y,F53Y,Y126T] (P53609 whole entry F52Y/F53Y/Y126T): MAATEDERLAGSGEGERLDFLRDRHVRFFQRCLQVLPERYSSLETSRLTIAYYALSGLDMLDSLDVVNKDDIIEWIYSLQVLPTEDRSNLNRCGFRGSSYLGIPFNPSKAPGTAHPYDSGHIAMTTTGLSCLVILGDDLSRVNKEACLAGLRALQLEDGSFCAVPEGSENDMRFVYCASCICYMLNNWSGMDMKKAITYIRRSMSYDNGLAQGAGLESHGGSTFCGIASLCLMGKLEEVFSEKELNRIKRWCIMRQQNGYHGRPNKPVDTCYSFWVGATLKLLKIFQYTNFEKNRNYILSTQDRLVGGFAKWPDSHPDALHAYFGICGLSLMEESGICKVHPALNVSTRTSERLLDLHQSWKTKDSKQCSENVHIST

In the case of CC(C)=CCC/C(C)=C/CC/C(C)=C/CC/C(C)=C/COP(=O)(O)OP(=O)(O)O, the Activity [1] is reported as “inactive”, the Activity [2] is reported as “inactive” and the Activity [3] is reported as “inactive”. For the same compound, the Activity [4] was “inactive”.

In the case of CSCC[C@H](NC(=O)[C@H](Cc1ccccc1)NC[C@@H](NC[C@@H](N)CS)C(C)C)C(=O)O, the inhibition (COS-7 [5]) is reported as “inactive”.

In the case of CCC[C@@H]1[C@@H](Sc2ccc(OC)cc2)[C@@H](C(=O)O)[C@H](c2ccc(Br)cc2)N1S(=O)(=O)c1ccc(C)cc1, the inhibition (COS-7 [6]) is reported as “inactive”.

Compound CC[C@H](C)C(=O)O[C@H]1CCC=C2C=C[C@H](C)[C@H](CC[C@@H]3C[C@@H](O)CC(=O)O3)[C@H]21 has an Activity (COS-7 [7]) of 1.1 pmol, an Activity (COS-7 [8]) of 0.2 pmol and an Activity (COS-7 [9]) of 1.5 pmol. It also gave an Activity (COS-7 [10]) of 1.7 pmol, an Activity (COS-7 [11]) of 0.2 pmol and an Activity (COS-7 [12]) of 0.7 pmol. The inhibition (COS-7 [13]) was “Active”, the Activity (COS-7 [14]) was 1.1 pmol and the Activity (COS-7 [15]) was 0.4 pmol. The Activity (COS-7 [16]) was 0.2 pmol, the Activity (COS-7 [17]) was 0.2 pmol and the Activity (COS-7 [18]) was 1.2 pmol. The Activity (COS-7 [19]) was 0.4 pmol, the Activity (COS-7 [20]) was 1.6 pmol and the Activity (COS-7 [21]) was 0.2 pmol. For the same compound, the Activity (COS-7 [22]) was 1.5 pmol, the Activity (COS-7 [23]) was 0.2 pmol and the Activity (COS-7 [24]) was 1.3 pmol. It also gave an Activity (COS-7 [25]) of 0.3 pmol, an Activity (COS-7 [26]) of 0.1 pmol and an Activity (COS-7 [27]) of 1 pmol. It also gave an Activity (COS-7 [28]) of 0.6 pmol, an Activity (COS-7 [29]) of 1.7 pmol and an Activity (COS-7 [30]) of 1.2 pmol. The Activity (COS-7 [31]) was 0.6 pmol, the Activity (COS-7 [32]) was 0.1 pmol and the Activity (COS-7 [33]) was 0.8 pmol. It also gave an Activity (COS-7 [34]) of 0.2 pmol, an Activity (COS-7 [35]) of 0.8 pmol and an Activity (COS-7 [36]) of 0.6 pmol. It also gave an Activity (COS-7 [37]) of 0.7 pmol, an Activity (COS-7 [38]) of 0.1 pmol and an Activity (COS-7 [39]) of 1.8 pmol. The Activity (COS-7 [40]) was 0.2 pmol, the Activity (COS-7 [41]) was 0.1 pmol and the Activity (COS-7 [42]) was 0.4 pmol. The Activity (COS-7 [43]) was 0.3 pmol, the Activity (COS-7 [44]) was 0.6 pmol and the Activity (COS-7 [45]) was 0.8 pmol. The Activity (COS-7 [46]) was 0.5 pmol, the Activity (COS-7 [47]) was 0.4 pmol and the Activity (COS-7 [48]) was 0.2 pmol. The Activity (COS-7 [49]) was 0.2 pmol.

For CCCCCCS[C@H]1[C@@H](C(=O)O)[C@H](c2ccc(Br)cc2)N(S(=O)(=O)c2ccc(C)cc2)[C@@H]1CCCCCC, the inhibition (COS-7 [6]) was “inactive”.

For COC(=O)[C@H](CC(C)C)NC(=O)c1ccc(NC[C@@H](N)CS)cc1-c1cccc2ccccc12, the inhibition (COS-7 [50]) was “Active”, the inhibition (COS-7 [51]) was “Active” and the inhibition (COS-7 [52]) was “inactive”.

For CCCCCCS[C@H]1[C@@H](C(=O)O)[C@H](c2ccc(Br)cc2)N(S(=O)(=O)c2ccc(C)cc2)[C@@H]1CCC, the inhibition (COS-7 [6]) was “inactive”.
